In brackets after ≈: the same amount, converted by molar mass. Like-named read-outs stand apart in the source and are kept apart here.
Key:
[1] = DHM solubility in water; assay type: physicochemical
[2] = at 25° C.; background; cited from earlier work
[3] = physchem; conditions: 25° C.
[4] = in words; cited from earlier work
[5] = cited from earlier work

Question: What does the source list for `O=C1c2c(O)cc(O)cc2O[C@H](c2cc(O)c(O)c(O)c2)[C@H]1O` [DHM, (2R,3R)-3,5,7-trihydroxy-2-(3,4,5-trihydroxyphenyl)-2,3-dihydrochromen-4-one]?
Answer: solubility ([1]; 100° C. (hot water)): 15500 µg/mL (≈ 48400 µM); solubility ([1]; water, 25 °C, water, 25° C. (room temperature), read-out: Solubility): 700 µg/mL (≈ 2190 µM); solubility ([1]; water, 100 °C, water, 100° C. (hot water), read-out: Solubility): 16000 µg/mL (≈ 50000 µM); solubility [2]: 200 µg/mL (≈ 625 µM); solubility [3]: 700 µg/mL (≈ 2190 µM)

Question: For `OC[C@H]1O[C@H](O[C@]2(CCl)O[C@H](CCl)[C@@H](O)[C@@H]2O)[C@H](O)[C@@H](O)[C@H]1Cl` [sucralose], which solubility in water [4] is on record?
Answer: freely soluble

Question: Which “pKa value (25° C.)” value [5] does the source give for `OC[C@H]1O[C@@H]2O[C@H]3[C@H](O)[C@@H](O)[C@@H](O[C@H]4[C@H](O)[C@@H](O)[C@@H](O[C@H]5[C@H](O)[C@@H](O)[C@@H](O[C@H]6[C@H](O)[C@@H](O)[C@@H](O[C@H]7[C@H](O)[C@@H](O)[C@@H](O[C@H]8[C@H](O)[C@@H](O)[C@@H](O[C@H]1[C@H](O)[C@H]2O)O[C@@H]8CO)O[C@@H]7CO)O[C@@H]6CO)O[C@@H]5CO)O[C@@H]4CO)O[C@@H]3CO` [β-Cyclodextrin, β-cyclodextrin] here?
Answer: 12.202

Question: Which “pKa value (25° C.)” value [5] does the source give for `OC[C@H]1O[C@@H]2O[C@H]3[C@H](O)[C@@H](O)[C@@H](O[C@H]4[C@H](O)[C@@H](O)[C@@H](O[C@H]5[C@H](O)[C@@H](O)[C@@H](O[C@H]6[C@H](O)[C@@H](O)[C@@H](O[C@H]7[C@H](O)[C@@H](O)[C@@H](O[C@H]1[C@H](O)[C@H]2O)O[C@@H]7CO)O[C@@H]6CO)O[C@@H]5CO)O[C@@H]4CO)O[C@@H]3CO` [α-Cyclodextrin, α-cyclodextrin] here?
Answer: 12.331
